Assay results as given in the METLIN SMRT retention time set (Domingo-Almenara et al. 2019).

Assay: gradient 5% acetonitrile 3 min, to 50% in 2 min, to 85% in 15 min, held 3 min, 100 µL/min
Conditions: column: Zorbax Extend-C18 2.1 x 50 mm; eluents: water / acetonitrile, 0.1% formic acid
Outline: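 A Zorbax Extend-C18 column (2.1 × 50 mm, 1.8 μm) run at 100 μL/min with water and acetonitrile, both containing 0.1% formic acid, separated mixtures of ~100 pure standards. The HPLC was coupled to a quadrupole time-of-flight mass spectrometer operated in positive and negative ionization mode, with dead and dwell volumes of 40 μL and 900 μL. Each retention time was taken from a computationally picked adduct peak that was then manually inspected.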

Compared with CN(C)c1ccc(Nc2nc(-c3ccc(O)cc3O)cs2)cc1, Cc1ccc(Nc2nc(-c3ccc(C)cc3)c(C)s2)cc1 is higher in RP-LC retention time: 850 s for the first, 1180 s for the second.

First: CC(C)N1CCN(C(=O)CC2Sc3ncccc3N(C)C2=O)CC1 (centres undefined)
Second: CN1C(=O)C(C)(C)c2cc(S(=O)(=O)N(C)CC(=O)N3CCN(c4ccccn4)CC3)ccc21
The RP-LC retention time of the first is lower: 570 s for the first, 610 s for the second.

First: CC(C)NC(=O)c1cc2c(n(-c3ccc(C(F)(F)F)cc3)c1=O)CCCC2=O
Second: CCOC(=O)c1cc(C)nc2c1c(=O)n(Cc1cccc(C(F)(F)F)c1)c(=O)n2C
The RP-LC retention time of the first is lower: 883 s for the first, 1150 s for the second.

First: COc1ccccc1NC(=O)Cn1cnc2nc(N3CCCC(C(=O)NC(C)C)C3)sc2c1=O (centres undefined)
Second: CCOc1ccc(NC(=O)Cn2cnc3nc(N4CCCC(C(=O)NC5CC5)C4)sc3c2=O)cc1 (centres undefined)
The RP-LC retention time of the first is higher: 688 s for the first, 675 s for the second.

First: O=c1c2cc(-c3cccs3)nn2cnn1Cc1nc(-c2ccc(F)cc2)no1
Second: Cc1ccc(-c2cc3c(=O)n(Cc4noc(CN5CCCC5)n4)ccn3n2)cc1
The RP-LC retention time of the first is higher: 1040 s for the first, 654 s for the second.

Compared with Cc1nc(-c2csc(S(=O)(=O)N3CCC(C(=O)NC(C)Cc4ccco4)CC3)c2)no1 (centres undefined), Cc1cc(NC(=O)C2CCN(C(=O)COc3ccccc3F)CC2)no1 is lower in RP-LC retention time: 843 s for the first, 696 s for the second.

First: CCn1cc(-c2ccc(OC)cc2)cc1C(=O)N1CCCC1
Second: CC(C)(C)c1noc(-c2ccc(-n3cnc(C(=O)N4CCCCCC4)c3)nc2)n1
The RP-LC retention time of the first is lower: 952 s for the first, 1030 s for the second.

Compared with CC1CCN(c2cncnc2-n2cc(NC(=O)NC3CCCCC3)cn2)CC1, COc1cccc(NC(=O)C2CCCN(c3ncnc4c3nc3n4CCCCC3)C2)c1 (centres undefined) is higher in RP-LC retention time: 744 s for the first, 781 s for the second.

Going from Cc1ccc(NC(=O)N2CCC(N3CCN(Cc4ccccc4)C(=O)C3=O)CC2)cc1C to Cc1ccc(NC(=O)NC2CCN(c3ccccc3)C2=O)c(C)c1 (centres undefined), the RP-LC retention time rises from 780 s to 823 s.

Compared with O=C(CCn1nnc2cc(-c3noc(C4(c5ccccc5)CC4)n3)ccc21)N1CCCC1, COc1ccc(-c2noc(-c3cc(N4CCN(C)CC4)nc4ccccc34)n2)cc1 is lower in RP-LC retention time: 958 s for the first, 794 s for the second.

Going from CC(C)OCCCN(CC(=O)N1CCNCC1)C(=O)c1ccc(C(F)(F)F)cc1 to CC(C)Oc1ccc(CNC(=O)C2(C)CCCCC(=O)N2)cc1 (centres undefined), the RP-LC retention time rises from 653 s to 710 s.

Compared with Cc1ccc(C)c(N2CCN(C(=O)c3c(C)oc4nc(C)nc(N5CCOCC5)c34)CC2)c1, COc1cc(Cl)c(C)cc1NC(=O)C1CCN(c2c(C(=O)N3CCOCC3)cnc3snc(C)c23)CC1 is lower in RP-LC retention time: 1020 s for the first, 945 s for the second.

First: CC(=O)NCCCOc1ccc([N+](=O)[O-])cc1Cl
Second: CCCCNC(=O)C1CCN(c2cnn(Cc3ccccc3)c(=O)c2)CC1
The RP-LC retention time of the first is higher: 786 s for the first, 752 s for the second.

First: Cc1sc(-c2cc(C(F)(F)F)[nH]n2)cc1S(=O)(=O)N1CCC(C)CC1
Second: CCn1c(=O)sc2cc(S(=O)(=O)N3CCC(C(=O)N4CCC(C)CC4)CC3)ccc21
The RP-LC retention time of the first is higher: 1100 s for the first, 900 s for the second.

Going from Cc1ccc(CC(=O)NC2CCN(c3cc(C)cc(C)c3)C2=O)cc1 (centres undefined) to Cc1ccc(N2CCC(NC(=O)c3ccc(Br)o3)C2=O)cc1 (centres undefined), the RP-LC retention time falls from 893 s to 812 s.

Going from O=C(O)c1cnc(N2CCOCC2)nc1-c1ccc(Cl)cc1 to Cc1cccc(Sc2nccnc2N2CCC(C(=O)N3CCOCC3)CC2)c1, the RP-LC retention time rises from 823 s to 900 s.

Compared with Clc1ccc(Cl)c(-c2ccc(-c3nn4c(-c5ccco5)nnc4s3)o2)c1, Cc1c(C(=O)Nc2ccnn2Cc2ccco2)oc2cc(Br)ccc12 is lower in RP-LC retention time: 1260 s for the first, 1020 s for the second.

Going from COc1ccc(Cc2nnc(SCC(=O)Nc3nc(-c4ccccc4)c(C)s3)o2)cc1 to COc1ccc(NC(=O)Cn2c(C)nc3c(sc4nc(-c5ccccc5)ccc43)c2=O)cc1, the RP-LC retention time falls from 1020 s to 988 s.

First: COc1cccc(C2Cn3nnc(-c4nc(-c5cccc(Cl)c5)no4)c3CO2)c1 (centres undefined)
Second: COc1ccc(-c2noc(-c3ncn4c3COC(c3ccc(F)cc3)C4)n2)c(OC)c1 (centres undefined)
The RP-LC retention time of the first is higher: 1250 s for the first, 954 s for the second.

Compared with O=C(CCc1csc(NC(=O)c2cccs2)n1)Nc1ccc(F)c(Cl)c1, O=C(Cn1ccc2sccc2c1=O)Nc1ccc(F)c(F)c1 is lower in RP-LC retention time: 869 s for the first, 752 s for the second.

Going from CC(C)c1cccc(NC(=O)C2CCN(C(=O)c3ncn4c3COC(c3ccc(F)cc3)C4)CC2)c1 (centres undefined) to Cc1sc(NC(=O)c2ccco2)c(CN2CCN(c3ccc(F)cc3)CC2)c1C, the RP-LC retention time falls from 931 s to 691 s.

Going from Cc1ccccc1C(=O)Nc1c(-c2ccccc2)nc2ccccn12 to O=C(CCc1ccccc1)Nc1c(-c2ccccc2)nc2ccccn12, the RP-LC retention time rises from 634 s to 663 s.

Compared with Cc1noc(C)c1-c1ccc(S(=O)(=O)NCc2ccc(Cl)cc2)cc1, Cc1ccc(-c2noc(-c3cccc(S(=O)(=O)Nc4cccnc4)c3)n2)cc1 is lower in RP-LC retention time: 969 s for the first, 941 s for the second.

First: CN(CC1CCOC1)C(=O)c1ccc(F)cc1F (centres undefined)
Second: Cc1ccc(NC(=O)N2CCCC2c2nc(-c3ccc(F)cc3F)no2)c(C)c1 (centres undefined)
The RP-LC retention time of the first is lower: 683 s for the first, 1050 s for the second.

Going from Cc1cc2[nH]c(C(=O)NCc3ccc(F)cc3)c(CN3CCOCC3)c2s1 to Cc1cc(=O)n(CCOc2ccc(F)cc2)c(N2CCSCC2)n1, the RP-LC retention time rises from 689 s to 898 s.

First: CCNC(=O)C1CCCN(C(=O)c2cc(C)cc(C)c2)C1 (centres undefined)
Second: CCOC(=O)C1CCCN(C(=O)c2ccc(SCCN3CCOCC3)nc2)C1 (centres undefined)
The RP-LC retention time of the first is higher: 718 s for the first, 616 s for the second.

First: O=C(Cn1nc2c3sc(N4CCCCC4)nc3ncn2c1=O)Nc1ccc(Cl)cc1F
Second: O=c1n(Cc2cc(F)cc(F)c2)nc2ccc(S(=O)(=O)N3CCCCC3)cn12
The RP-LC retention time of the first is lower: 868 s for the first, 960 s for the second.

First: Cc1sc(C)c(S(=O)(=O)Nc2cccc(F)c2)c1-c1cc(C(F)(F)F)on1
Second: O=S(=O)(c1ccc(-c2cc(C(F)(F)F)on2)o1)N1CCCCC1
The RP-LC retention time of the first is higher: 1140 s for the first, 1110 s for the second.

Compared with CSc1ccc(CNC(=O)Cn2cnc3nc4c(cc3c2=O)CCCC4)cc1, CCc1ccc(NC(=O)c2cn3c(n2)CCCC3)cc1 is lower in RP-LC retention time: 733 s for the first, 644 s for the second.

First: COc1cc(-n2c(C)nc3cc(C(=O)NCC4CCCO4)ccc32)cc(OC)c1OC (centres undefined)
Second: COc1cccc(-c2nc(-c3ccc4c(c3)oc(=O)n4C(C)C)no2)c1OC
The RP-LC retention time of the first is lower: 631 s for the first, 1140 s for the second.

Going from CCOc1cc(CNC(=O)c2ccc3c(c2)N(C)C(=O)c2ccccc2O3)cc(OCC)c1OCC to COc1ccc2[nH]c(C(=O)Nc3ccccc3)cc2c1, the RP-LC retention time falls from 973 s to 880 s.

First: CCS(=O)(=O)Nc1ccc(-c2noc(-c3ccc4c(c3)OCO4)n2)cc1
Second: CCCn1c(=O)c(C)nc2cc(-c3noc(-c4ccsc4)n3)ccc21
The RP-LC retention time of the first is lower: 954 s for the first, 1080 s for the second.

Compared with CC(NC(=O)c1cn(C)c2ncccc12)c1cccnc1 (centres undefined), CCn1c(CCNC(=O)c2ccc(Cl)cc2)nc2cccnc21 is higher in RP-LC retention time: 555 s for the first, 653 s for the second.

First: CCOC(=O)CNC(=O)N1CCCN(C2=NS(=O)(=O)C(c3ccccc3)=C2C)CC1
Second: CC1=C(c2ccccc2)S(=O)(=O)N=C1N1CCCN(C(=O)C(C)(C)C)CC1
The RP-LC retention time of the first is lower: 718 s for the first, 803 s for the second.

Going from Cc1cccc(-c2nc3ccccn3c2NC(=O)NCc2ccco2)c1 to O=C(NCc1ccco1)N1CCN(Cc2nc3cccnc3n2-c2cccc(F)c2)CC1, the RP-LC retention time falls from 640 s to 636 s.

First: Cc1noc(C)c1CCC(=O)Nc1ccccc1NC(=O)c1ccsc1
Second: CCCc1nnc(NC(=O)c2ccc3[nH]c(C)cc(=O)c3c2)s1
The RP-LC retention time of the first is higher: 720 s for the first, 607 s for the second.

First: CCc1ccc(C2=C(C)C(N3CCCN(C(=O)CC(C)(C)C)CC3)=NS2(=O)=O)cc1
Second: Cc1nn(C2CCS(=O)(=O)C2)c(C)c1N1CCN(C(=O)c2cc3ccccc3[nH]2)CC1 (centres undefined)
The RP-LC retention time of the first is higher: 949 s for the first, 747 s for the second.

First: CCCNc1cc(N2CCC(CCC(=O)NCc3c(C)nn(C)c3C)CC2)ncn1
Second: CCOc1ccc(NC(=O)CCC2CCCN(c3cc(NC4CC4)ncn3)C2)cc1 (centres undefined)
The RP-LC retention time of the first is lower: 594 s for the first, 692 s for the second.

Going from O=C([C@@H]1C[C@H](F)CN1S(=O)(=O)c1cc(F)ccc1F)N1CCCCC1 to CS(=O)(=O)N1CCC(C(=O)N2CCC(COCc3ccccc3)CC2)CC1, the RP-LC retention time falls from 794 s to 772 s.

Compared with Cc1ccccc1Nc1c(-c2c(F)cccc2Cl)nc2cccc(C)n12, Cc1cccc(C)c1Nc1c(-c2cc(Br)ccc2O)nc2ncccn12 is higher in RP-LC retention time: 762 s for the first, 1090 s for the second.

Going from CN1C(=O)CCS(=O)(=O)C1c1ccc(Cl)cc1 (centres undefined) to CC1(C(=O)N2CCN(c3ccccn3)CC2)CCCCC(=O)N1 (centres undefined), the RP-LC retention time falls from 759 s to 552 s.

First: CC(C)Cn1cc(CCNS(=O)(=O)c2ccc(Br)cc2)c2cccnc21
Second: CCOc1ccc(NC(=O)c2cnn(-c3ccc(Br)cc3)c2)cc1
The RP-LC retention time of the first is lower: 998 s for the first, 1030 s for the second.

First: Cc1sc2cc(C(=O)N3CCCC3)[nH]c2c1CN1CCCCC1
Second: Cc1cc(C)cc(NC(=O)C(=O)NCC(c2ccc3c(c2)CCCN3C)N2CCOCC2)c1 (centres undefined)
The RP-LC retention time of the first is higher: 646 s for the first, 601 s for the second.

Compared with CC(C)(C)NC(=O)NC1CCN(C(=O)C2CC2)C1 (centres undefined), CCOCCCNC(=O)C1CCCN(c2nnc(C)c3c(C)n(-c4ccc(C)cc4)nc23)C1 (centres undefined) is higher in RP-LC retention time: 610 s for the first, 687 s for the second.

Compound CCN(CCN(C)C)c1ccc(C(=O)O)cc1NS(=O)(=O)c1ccc(C)cc1 has an RP-LC retention time of 623 s.
